Paper PMC10381533, “Inhibitory Effects of the Fungal Pigment Rubiginosin C on Hyphal and Biofilm Formation in Candida albicans and Candida auris” (Journal of Fungi, 2023)

Assays:
[1] = tested on: murine fibroblasts (L929) and human endocervical adenocarcinoma cells (KB-3-1); parameters: method as in doi:10.1002/ejoc.202001661; details: range over Rub A and Rub Z and over both cell lines; cited from earlier work
C. auris [DSM 21092] = test: MIC assay, C. auris; assay type: cell-based, Candida auris; details: tested 250–2 µg/mL
Experimental: (§1) The MICs of rubiginosin- and rutilin-type azaphilones—in detail, Rub A, C, W, Z, and Rut A and B—were determined as described previously using the selected pathogens C. albicans [DSM 11225, DSM 1665], C. albicans CAI-4 HWP1-lacZ [ZK3379] and C. auris [DSM 21092] (see Table S1 for detailed information). All compounds were tested within the concentration range of 250 µg/mL–2 µg/mL for C. albicans [DSM 11225, DSM 1665], C. albicans CAI-4 HWP1-lacZ [ZK3379], C. auris [DSM 21092]. […]
(§2) All compounds were fully dissolved in
(§3) The assay was conducted as a minimum inhibitory concentration (MIC) assay in 96-well round-bottom microtiter plates using the parameters summarized in table S1 and as already described in [2]. Stocks of the test organisms were generated by growing the organisms overnight in 250 mL (Candida albicans [DSM 11225], [DSM 1665], CAI-4 HWP1-lacZ, Candida auris [DSM 21092]) or 50 mL shaking (the rest organisms) flasks filled with 25 mL of the growth medium at 140 rpm (for media and temperatures see table S1). After incubation overnight, the OD of the suspension was measured and adjusted by diluting with the respective growth medium. OD600 nm was adjusted to 0.01 for bacteria and OD600 nm to 0.1 for fungi and 150 μL of the adjusted suspensions were added to all wells of a 96-well microtiter plate (one test organism per plate). Subsequently, additional 130 μL (1 mg/mL tested compounds) or 142.5 μL (10 mg/mL tested compounds ) of suspensions, plus 20 μL (1 mg/mL tested compounds) respectively 7.5 μL (10 mg/mL tested compounds ) of the test compounds were added to first row. C ontrols (one compound/column) were added as well: MeOH were used as solvent control, while different positive controls (reference drugs ) were used for the according test organisms (see table S1). Starting from row A, 150 μL of the suspension were transferred […]
(§4) to the next row, the contents thoroughly mixed, and 150 μL transferred to the following row. The remaining 150 μL after row H were discarded.
(§5) 66.7 μg/mL in row A to 0.52 μg/mL in row H (1 mg/mL tested compounds) or 250 μg/mL in row A to 2 μg/mL in row H (10 mg/mL tested compounds).
(§6) The 96-well microtiter plates were then incubated overnight on a microplate shaker at 800 rpm at 30 or 37 °C (see table S1) and were visually evaluated the next day. The MIC is defined as the lowest concentration where no growth of the test organism was observed. A lower MIC thus corresponds to a higher antimicrobial activity […]
(§7) Table S1: MIC assay experiment parameters.
(§8) Tested organisms Strain No. Growth Incubation Positive control medium temp. [°C ] (reference)
(§9) KB-3-1 (ACC 158) cervix carcinoma as well as L929 (ACC 2) mouse fibroblasts were cultured under standard cell culture conditions (37 °C, 5% CO2, 95% humidified atmosphere). The cells were maintained in high glucose DMEM containing 10% fetal bovine serum and 100 U/mL penicillin and streptomycin (Gibco, Thermo Fisher Scientific, Waltham, USA). Cell lines were serially passaged after trypsinization, using 0.05% trypsin / 0.02% EDTA solution. The cultures were routinely monitored for potential contamination, and only mycoplasma free cultures were used. The test compounds were investigated for their anti-proliferative effect on cell lines, using the 3-(4,5-dimethylthiazol-2-yl)-2,5-diphenyltetrazolium bromide (MTT) based cell viability assay. […]

C. albicans [DSM 1665] = tested on: C. albicans [DSM 1665]; parameters: method as in doi:10.1002/ejoc.202001661; details: highest tested concentration 250 µg/mL; cited from earlier work
[2] = tested on: C. albicans CAI-4 HWP1-lacZ [ZK3379]; test: MIC assay, C. albicans CAI-4 HWP1-lacZ; assay type: cell-based, Candida albicans; details: tested 250–2 µg/mL
Experimental: as §1, §2, §3, §4, §5, §6, §7, §8, §9

C. auris biofilm = test: Crystal violet biofilm formation assay, C. auris; assay type: cell-based, Candida auris; details: for effect on formation of C. auris biofilms: CV assay, 24 h treatment; for inhibition at 2 µg/mL / inhibition at 3.9 µg/mL / inhibition at 7.8 µg/mL / inhibition at 15.6 µg/mL / inhibition at 31.3 µg/mL / inhibition at 62.5 µg/mL / inhibition at 125 µg/mL / inhibition at 250 µg/mL: Candidozyma auris, read-out: inhibition of C. auris biofilm formation compared to solvent control (= 0%)
Experimental: (§10) The fungal pathogens C. auris [[…]] or C. albicans [DSM 11225] were cultured from stock in 25 mL YPD medium in a 250 mL flask (30 °C, 100 rpm, 18 h). The turbidity of the broth was measured at 280 nm using a spectrophotometer (Nanodrop 2000c, Thermo Fisher Scientific, Waltham, MA, USA) and diluted to match the turbidity of a 0.5 McFarland standard in RPMI 1640 medium (Gibco, New York, NY, USA; Thermo Fisher Scientific), supplemented with […] 3-(N-morpholino)propanesulfonic acid (MOPS, Carl Roth, Karlsruhe, Germany) for C. auris, or 0.05 McFarland standard in RPMI 1640 medium in the case of C. albicans. Subsequently, 150 μL of the fungal dispersion were added into each well of a 96-well microtiter plate (Falcon no. 351172, Thermo Fisher Scientific) and further incubated (37 °C, 150 rpm, 2 h [C. auris] or 90 min [C. albicans]). The supernatant was discarded and the plate was rinsed one time by using a PBS buffer. Afterwards, azaphilones (Rub A, C, W, Z, and Rut A and B) were serially diluted in 150 μL in fresh medium to concentrations of 250–2 μg/mL (Rub C for C. auris: 250–0.02 μg/mL). Methanol (2.5%) was used as a solvent control and both, nystatin (NYS; Thermo Fisher Scientific) and farnesol (FA; Sigma Aldrich, St. Louis, MO, USA) as positive controls (250–2 μg/mL) for C. auris and C. albicans, respectively. Plates were further incubated (37 °C, 150 rpm, 24 h). The supernatant was discarded and biofilms were washed with PBS, stained by adding 150 μL of the crystal violet (CV; Sigma Aldrich) solution (0.1%), and incubated (room temperature, 25 min). Afterwards, the plates were washed twice with PBS buffer. A total of 150 μL ethanol (95%) were applied to dissolve the biofilm-bound CV. The absorbance was measured by a plate reader (Synergy 2, BioTek, Santa Clara, CA, USA) at 570 nm for C. auris or 610 nm for C. albicans. Error bars indicate SD with duplicates in two biological repeats.

[3] = tested on: human endocervical adenocarcinoma KB-3-1 [ACC 158] cells; details: cited from earlier work
[4] = tested on: mouse fibroblasts L929 [ACC 2]; details: cited from earlier work
C. albicans [DSM 11225] = test: MIC assay, C. albicans DSM 11225; assay type: cell-based, Candida albicans; details: tested 250–2 µg/mL
Experimental: as §1, §2, §3, §4, §5, §6, §7, §8, §9

[5] = tested on: C. albicans [DSM 11225] biofilm; test: Crystal violet biofilm formation assay, C. albicans; assay type: cell-based, Candida albicans; details: CV assay, 24 h treatment
Experimental: as §10, with “Methanol (2.5%) was used as a solvent control and both, nystatin (NYS; Thermo Fisher Scientific) and farnesol (FA; Sigma Aldrich, St. Louis, MO, USA) as positive controls (250–2 μg/mL) for C. auris and C. albicans, respectively. Plates were further incubated (37 °C, 150 rpm, 24 h). The supernatant was discarded and biofilms were washed with PBS, stained by adding 150 μL of the crystal violet (CV; Sigma Aldrich) solution (0.1%), and incubated (room temperature, 25 min). Afterwards, the plates were washed twice with PBS buffer. A total of 150 μL ethanol (95%) were applied to dissolve the biofilm-bound CV.” left out, “Error bars indicate SD with duplicates in two biological repeats.” left out

[6] = parameters: method as in PMID 15921417; details: OA alone; cited from earlier work

| Compound | IC50 values between [1] [µg/mL] | MIC (C. auris [DSM 21092]) | MIC (C. albicans [DSM 1665]) | MIC [2] | effect on formation of C. auris biofilms (C. auris biofilm) | inhibition at 2 µg/mL (C. auris biofilm) [%] | inhibition at 3.9 µg/mL (C. auris biofilm) [%] | inhibition at 7.8 µg/mL (C. auris biofilm) [%] | inhibition at 15.6 µg/mL (C. auris biofilm) [%] | inhibition at 31.3 µg/mL (C. auris biofilm) [%] | inhibition at 62.5 µg/mL (C. auris biofilm) [%] | inhibition at 125 µg/mL (C. auris biofilm) [%] | inhibition at 250 µg/mL (C. auris biofilm) [%] | IC50 [3] [µM] | IC50 [4] [µM] | MIC (C. albicans [DSM 11225]) | concentration above which significant effects on C. albicans biofilm formation start [5] | cytotoxicity [6] |
| --- | --- | --- | --- | --- | --- | --- | --- | --- | --- | --- | --- | --- | --- | --- | --- | --- | --- | --- |
| CC(=O)OC/C=C/C1=CC2=C(CO1)C(=O)[C@@](C)(OC(=O)c1c(C)cc(O)cc1O)[C@@H](O)C2 [Rub Z, rubiginosin Z] | 2.6 to 4.5 | no antimicrobial activity | no antimicrobial activity | no antimicrobial activity | did not affect the formation | < 20 | < 20 | < 20 | < 20 | < 20 | < 20 | < 20 | < 20 | 5.2 | 4.7 | no antimicrobial activity | – | – |
| CC(=O)OC/C=C/C1=CC2=C(CO1)C(=O)[C@@](C)(O)[C@@H](OC(=O)c1c(C)cc(O)cc1O)C2 [Rub A, rubiginosin A] | 2.6 to 4.5 | no antimicrobial activity | no antimicrobial activity | no antimicrobial activity | did not affect the formation | < 20 | < 20 | < 20 | < 20 | < 20 | < 20 | < 20 | < 20 | 5.2 | 3.2 | no antimicrobial activity | above 31.3 µg/mL | – |
| Cc1cc(O)cc(O)c1C(=O)O [OA, orsellinic acid] | – | – | – | – | – | – | – | – | – | – | – | – | – | – | – | – | – | no cytotoxicity |
